In publication PMC6271425, “Synthesis and Sar Study of Diarylpentanoid Analogues as New Anti-Inflammatory Agents” (Molecules, 2014):
Entries after “also recorded” stand apart in the source; their conditions may differ. Where two headings read alike, the source gives them in different places.

Assays:
[1] = system: NO production in IFN-γ/LPS-stimulated RAW 264.7 macrophages; experiment: NO suppression (Griess nitrite determination) in IFN-γ/LPS-stimulated RAW 264.7 macrophages; assay type: cell-based, murine; settings: for NO Inhibition at 50 µM (%) ± S.E.M: 50 µM test concentration; for inhibition at 50 µM: RAW264.7, 50 µM test concentration, read-out: NO Inhibition at 50 µM (%) ± S.E.M
Protocol: The synthesized compounds were screened for NO suppression activity in IFN-γ/LPS-stimulated RAW 264.7 macrophages at a 50 µM test concentration. […] The IC50 values of the fifty-seven bioactive compounds were determined and compared to that of the positive control, curcumin. An MTT assay was also carried out to confirm that NO inhibition was not due to cytotoxicity. […] The complete bioassay results of all the compounds are provided as Table S2 in Supplementary Data. RAW 264.7 murine macrophages cells obtained from American Type Culture Collection (ATCC, Rockville, MD, USA) were grown in Dulbecco’s Modified Eagle’s Medium (DMEM) containing 10% fetal bovine serum (FBS) and 1% penicillin/streptomycin in a 95% air and 5% CO2 atmosphere at 37 °C. RAW 264.7 cells at 90%–95% confluency were detached and seeded (50,000 cells/well) into a 96-well culture plate with 50 μL of DMEM and incubated for 24 h. The cells were then stimulated in […] of LPS (Escherichia coli, serotype 0111:B4) and 1 ng/ml of interferon-gamma (IFN-γ) in the presence or absence of test compounds for 17 h. Nitrite concentration was then determined by Griess assay by reacting 50 μL of cell culture supernatant with 50 μL of Griess reagent (1% sulfanilamide and 0.1% N-(1-naphthyl)ethylenediamine dihydrochloride in 2.5% phosphoric acid) at room temperature. The optical density was measured at 550 nm after 5 min of incubation at room temperature with a microplate reader.

RAW 264.7 cells = experiment: Cell cytotoxicity determination (MTT assay); assay type: cell-based, murine; settings: read-out: Cytotoxicity IC50 (µM) ± S.E.M
Protocol: (§1) The synthesized compounds were screened for NO suppression activity in IFN-γ/LPS-stimulated RAW 264.7 macrophages at a 50 µM test concentration. […] The IC50 values of the fifty-seven bioactive compounds were determined and compared to that of the positive control, curcumin. An MTT assay was also carried out to confirm that NO inhibition was not due to cytotoxicity. […] The complete bioassay results of all the compounds are provided as Table S2 in Supplementary Data.
(§2) RAW 264.7 murine macrophages cells obtained from American Type Culture Collection (ATCC, Rockville, MD, USA) were grown in Dulbecco’s Modified Eagle’s Medium (DMEM) containing 10% fetal bovine serum (FBS) and 1% penicillin/streptomycin in a 95% air and 5% CO2 atmosphere at 37 °C.
(§3) Supernatant in each well was removed followed by addition of 100 µL DMEM. Subsequently, 20 µL of 3-(4,5-dimethylthiazol-2-yl)-2,5-diphenyltetrazolium bromide (MTT, 5 mg/mL) was then added and the plate was incubated in a 95% air and 5% CO2 atmosphere at 37 °C for 4 h. The mixture of culture media and MTT in all wells were removed and the purplish formazan crystals formed were dissolved in dimethyl sulfoxide (DMSO) and further incubated for 15 min at room temperature. The color intensity was then measured at 570 nm at room temperature.

[2] = Cell cytotoxicity determination (MTT assay); assay type: cell-based, murine; settings: mouse, RAW 264.7 macrophage cells, RAW 264.7 cells, read-out: Cytotoxicity IC50 (µM) ± S.E.M
Protocol: as §1, §2, §3

[3] = Chemical stability test (UV-visible spectra in phosphate buffer pH 7.4); assay type: physicochemical; settings: 20 μM in phosphate buffer pH 7.4, 1% DMSO, 30 min at 5-min intervals, 25 °C
Protocol: Poor chemical stability of curcumin has been proven as one of the important factors, which cause its low bioavailability. Therefore, in the present study, we further tested the two best compounds (88 and 97) for their chemical stability at physiological pH and compared it to that of curcumin used as reference. The test was carried out by observing the ultraviolet spectral changes of the targeted compounds for 30 minutes with 5-minutes intervals in phosphate buffer (pH 7.4). Figure 8, Figure 9 and Figure 10 depict the ultraviolet changes of curcumin, compound 88 and compound 97, respectively.
Absorbance readings were taken from 300–600 nm using a SpectraMax Plus 384 (Molecular Devices LLC, Sunnyvale, CA, USA). A stock solution of 50 mM curcumin or active compounds 88 and 97 were prepared and diluted by phosphate buffer (pH 7.4), containing 1% dimethyl sulfoxide (DMSO), to a final concentration of 20 μM. The ultraviolet absorption spectra were collected for over 30 min at 5-min intervals at 25 °C. All spectral measurements were carried out in a 1 cm path-length quartz cuvette.

[4] = IFN-γ/LPS-stimulated RAW 264.7 cells
[5] = Mus musculus, IFN-γ/LPS-stimulated RAW 264.7 cells
[6] = Mus musculus, RAW264.7, IFN-γ/LPS-stimulated RAW 264.7 cells, read-out: NO Inhibition IC50 (µM) ± S.E.M
[7] = Mus musculus, RAW264.7, Table 6, NO suppression IC50 used for QSAR, unit inferred, read-out: IC50
[8] = Mus musculus, RAW264.7, −log IC50 of NO suppression, read-out: pIC50 (converted)

Row | IC50 [1, 6] | IC50 [1, 7] | IC50 [1, 8] | IC50 ([1]; IFN-γ/LPS-stimulated RAW 264.7 cells, read-out: NO Inhibition IC50 (µM) ± S.E.M) | SMILES | NO Inhibition at 50 µM (%) ± S.E.M [1, 4] | inhibition at 50 µM [1, 5] | IC50 (RAW 264.7 cells) | IC50 [2] | Chemical stability (ultraviolet spectral changes) [3]
1 | 4.89 ± 0.312 µM | 4.9 ± 0.3 µM | 4.9 µM | – | O=C(/C=C(O)/C=C/c1ccc(O)c(O)c1)c1cc(Cl)ccc1O [Compound 88] | 99.7 ± 1.2% | 99.7 ± 1.15% | 40.9 ± 1.6 µM | 56.4 ± 1.19 µM | excellent chemical stability; also recorded: no significant changes
2 | 9.56 ± 0.468 µM | 9.6 ± 0.5 µM | 9.55 µM | – | O=C(/C=C(O)/C=C/c1ccc(O)c(O)c1)c1ccccc1O [Compound 97] | 98.9 ± 1.6% | 98.9 ± 1.58% | – | > 100 µM | excellent chemical stability; also recorded: no significant changes
3 | 14.7 ± 0.24 µM | – | – | 14.7 ± 0.2 µM | COc1cc(/C=C/C(=O)CC(=O)/C=C/c2ccc(O)c(OC)c2)ccc1O [Curcumin, curcumin, reference compound] | 99.3 ± 0.2% | 99.33 ± 0.2% | 28.8 ± 0.8 µM | 28.8 ± 0.77 µM | gradually decreased over time
